Activity calls are given as the source filed them. No rule for the calls is given here.
Target: T1, Exodeoxyribonuclease V (Escherichia coli (strain K12), UniProt P04993+P07648+P08394)
T1 sequence (P04993 whole entry): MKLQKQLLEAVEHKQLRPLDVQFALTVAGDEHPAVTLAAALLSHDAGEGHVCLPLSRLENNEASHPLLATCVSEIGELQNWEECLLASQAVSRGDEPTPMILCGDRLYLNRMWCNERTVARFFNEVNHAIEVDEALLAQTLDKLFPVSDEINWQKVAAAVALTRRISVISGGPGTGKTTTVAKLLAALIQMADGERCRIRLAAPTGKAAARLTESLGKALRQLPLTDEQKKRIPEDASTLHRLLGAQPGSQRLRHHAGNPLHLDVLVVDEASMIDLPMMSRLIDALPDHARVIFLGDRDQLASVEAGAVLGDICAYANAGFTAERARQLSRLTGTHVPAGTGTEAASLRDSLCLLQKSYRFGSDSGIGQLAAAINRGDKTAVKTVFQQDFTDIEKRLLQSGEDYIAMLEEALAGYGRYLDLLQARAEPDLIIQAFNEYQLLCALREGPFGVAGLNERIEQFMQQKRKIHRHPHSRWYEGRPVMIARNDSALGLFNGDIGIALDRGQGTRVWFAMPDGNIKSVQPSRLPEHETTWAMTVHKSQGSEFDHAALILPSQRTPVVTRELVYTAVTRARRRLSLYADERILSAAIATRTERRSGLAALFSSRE
T1 sequence (P07648 whole entry): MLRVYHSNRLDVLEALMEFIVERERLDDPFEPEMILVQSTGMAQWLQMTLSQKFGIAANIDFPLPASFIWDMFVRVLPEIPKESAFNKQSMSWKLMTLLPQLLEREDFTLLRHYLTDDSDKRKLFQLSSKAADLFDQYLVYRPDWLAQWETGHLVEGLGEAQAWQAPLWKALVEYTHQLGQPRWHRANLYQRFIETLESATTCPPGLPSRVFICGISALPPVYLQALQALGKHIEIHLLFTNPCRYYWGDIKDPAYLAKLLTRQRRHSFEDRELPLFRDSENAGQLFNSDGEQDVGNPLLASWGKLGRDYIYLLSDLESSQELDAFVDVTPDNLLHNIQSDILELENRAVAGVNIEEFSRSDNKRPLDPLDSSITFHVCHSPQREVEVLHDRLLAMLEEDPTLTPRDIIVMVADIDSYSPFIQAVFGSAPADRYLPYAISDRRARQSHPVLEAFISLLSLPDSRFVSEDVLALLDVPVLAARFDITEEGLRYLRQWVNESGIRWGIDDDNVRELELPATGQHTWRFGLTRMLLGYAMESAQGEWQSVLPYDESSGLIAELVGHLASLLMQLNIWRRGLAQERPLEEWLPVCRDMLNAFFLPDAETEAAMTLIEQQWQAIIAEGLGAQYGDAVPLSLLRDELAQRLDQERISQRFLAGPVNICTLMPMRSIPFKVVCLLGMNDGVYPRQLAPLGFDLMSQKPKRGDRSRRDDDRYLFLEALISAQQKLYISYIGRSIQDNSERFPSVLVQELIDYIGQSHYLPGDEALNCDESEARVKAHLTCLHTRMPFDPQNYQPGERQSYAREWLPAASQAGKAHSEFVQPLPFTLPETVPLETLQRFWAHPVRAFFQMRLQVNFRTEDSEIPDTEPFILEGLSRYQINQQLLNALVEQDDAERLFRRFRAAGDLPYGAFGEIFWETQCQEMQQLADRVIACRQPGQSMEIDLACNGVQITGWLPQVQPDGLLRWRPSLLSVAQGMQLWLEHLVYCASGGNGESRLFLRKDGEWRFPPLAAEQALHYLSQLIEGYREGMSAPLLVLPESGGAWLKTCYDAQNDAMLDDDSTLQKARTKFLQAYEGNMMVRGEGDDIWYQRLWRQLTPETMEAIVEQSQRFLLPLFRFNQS
T1 sequence (P08394 whole entry): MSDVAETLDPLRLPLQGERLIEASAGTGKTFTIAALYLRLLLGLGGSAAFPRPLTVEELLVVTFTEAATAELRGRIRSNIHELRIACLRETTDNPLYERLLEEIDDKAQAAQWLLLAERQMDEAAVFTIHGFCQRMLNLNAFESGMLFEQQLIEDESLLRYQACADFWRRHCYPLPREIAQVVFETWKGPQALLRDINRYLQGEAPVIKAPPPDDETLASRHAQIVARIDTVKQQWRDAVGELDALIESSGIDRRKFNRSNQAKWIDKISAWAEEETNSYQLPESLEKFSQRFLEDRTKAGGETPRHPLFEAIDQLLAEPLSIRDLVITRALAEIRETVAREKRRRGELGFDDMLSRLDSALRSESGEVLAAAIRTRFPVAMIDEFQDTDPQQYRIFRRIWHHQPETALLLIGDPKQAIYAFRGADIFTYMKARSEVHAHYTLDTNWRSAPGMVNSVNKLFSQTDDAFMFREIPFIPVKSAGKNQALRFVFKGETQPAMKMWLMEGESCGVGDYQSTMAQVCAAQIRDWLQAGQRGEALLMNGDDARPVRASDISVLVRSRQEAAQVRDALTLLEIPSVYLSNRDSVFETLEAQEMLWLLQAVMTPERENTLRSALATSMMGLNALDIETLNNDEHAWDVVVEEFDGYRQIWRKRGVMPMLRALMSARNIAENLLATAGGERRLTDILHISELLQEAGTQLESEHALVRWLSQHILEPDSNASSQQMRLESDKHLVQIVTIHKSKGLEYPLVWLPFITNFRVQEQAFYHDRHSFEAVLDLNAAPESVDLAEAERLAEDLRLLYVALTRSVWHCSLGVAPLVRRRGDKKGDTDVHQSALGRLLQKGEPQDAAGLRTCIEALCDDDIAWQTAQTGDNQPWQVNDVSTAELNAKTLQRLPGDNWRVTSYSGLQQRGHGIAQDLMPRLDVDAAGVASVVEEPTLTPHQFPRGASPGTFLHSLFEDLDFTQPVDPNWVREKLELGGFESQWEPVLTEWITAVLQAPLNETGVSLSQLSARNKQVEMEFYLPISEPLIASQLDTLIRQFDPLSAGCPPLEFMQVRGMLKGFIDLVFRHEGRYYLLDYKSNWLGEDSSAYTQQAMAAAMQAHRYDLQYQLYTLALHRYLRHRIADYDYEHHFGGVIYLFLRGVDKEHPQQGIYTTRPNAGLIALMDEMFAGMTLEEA
Experiment: RecBCD inhibition via phage-restricted bacterial growth – absorbance, V66 E. coli, mutant T4 phage, counter-screen for AddAB inhibitor project, dose response (AID 492957)
Type: functional, cell-based, Escherichia coli str. K-12 substr. MG1655

CC(=O)NC(c1ccc2ccccc2c1)c1ccc2cccnc2c1O (stereo unspecified)
IC50: > 118 µM (inactive)

From ChEMBL document CHEMBL1201862, “PubChem BioAssay data set” (2004)
